The target of data set [1] is T1, Pseudomonas aeruginosa LpxC enzyme (Pseudomonas aeruginosa, UniProt P47205).
T1 construct: made in house; host or cells: Escherichia coli
T1 sequence (P47205 1-303): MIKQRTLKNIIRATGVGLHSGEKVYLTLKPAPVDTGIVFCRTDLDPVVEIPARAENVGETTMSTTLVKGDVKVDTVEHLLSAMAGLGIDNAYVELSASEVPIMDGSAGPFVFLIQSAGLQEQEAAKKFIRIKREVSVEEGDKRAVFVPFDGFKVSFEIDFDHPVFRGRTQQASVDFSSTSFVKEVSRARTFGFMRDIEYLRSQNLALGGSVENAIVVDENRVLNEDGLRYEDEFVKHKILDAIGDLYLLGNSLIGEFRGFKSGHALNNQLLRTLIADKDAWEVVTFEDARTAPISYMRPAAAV
The data set is described as follows: Test to evaluate Pseudomonas aeruginosa LpxC enzyme inhibitory activity. Format: biochemical. How it is done: The Pseudomonas aeruginosa LpxC enzyme activity was measured by reacting LpxC with its substrate UDP-3-O—(R-3-hydroxydecanoyl)-N-acetylglucosamine and measuring the amount of the reaction product by the quantification of an amino group present in the product. This measurement was carried out according to a method described in, for example, International Publication No. WO 11/132712 pamphlet or a method similar thereto.
Specifically, to the Pseudomonas aeruginosa LpxC enzyme (which was obtained by preparing chromosomal DNA from Pseudomonas aeruginosa, obtaining the Pseudomonas aeruginosa LpxC gene by PCR (polymerase chain reaction) using LpxC-specific primers, and incorporating this gene into a vector, followed by gene expression using Escherichia coli), 20 μmol/L UDP-3-O—(R-3-hydroxydecanoyl)-N-acetylglucosamine (Wako Pure Chemical Industries, Ltd.) was added, and the mixture was incubated at 25° C. for 1 hour. This reaction was carried out in a 40 mmol/L HEPES buffer solution (pH 8.0) containing 0.02% Brij 35 and 80 μmol/L dithiothreitol. The reaction was terminated by the addition of 20% acetic acid (final concentration: 0.95%) to the reaction solution. Then, fluorescamine (final concentration: 1.6 mg/mL) dissolved in anhydrous dioxane was added thereto. The amount of the reaction product was detected at an excitation wavelength/fluorescence wavelength=390 nm/495 nm. Each test compound was allowed to coexist at various concentrations in the reaction to obtain an inhibition curve.

Data set [2] has as its system Escherichia coli ATCC25922 strain. In words: Antibacterial activity, MIC by broth microdilution (CLSI). Format: cell-based. How it is done:
(§1) The minimum inhibitory concentration (MIC) was measured according to the CLSI (Clinical and Laboratory Standards Institute) standard method using a broth microdilution method given below. The bacteria used were a Pseudomonas aeruginosa ATCC27853 strain, an Escherichia coli ATCC25922 strain and a Klebsiella pneumoniae ATCC13883 strain. Test bacterial cells of each strain cultured overnight in a Mueller-Hinton agar medium were scraped off and suspended at the McFarland 0.5 standard, and this suspension was diluted 10-fold to prepare an inoculum solution. The inoculum solution (0.005 mL) was inoculated to a cation-adjusted Mueller-Hinton medium containing each test compound and cultured at 35° C. for 16 to 20 hours. The minimum drug concentration at which bacterial growth was not visible to the naked eye was defined as MIC.

Data set [3] concerns Klebsiella pneumoniae ATCC13883 strain. The description is as above. It counts as cell-based. How it is done:
as §1

Data set [4] deals with Pseudomonas aeruginosa ATCC27853 strain. The description is as above. Format: cell-based. How it is done: as §1
Data set [5] in a line: Test on inhibition of Vero cell growth (XTT). Particulars: African green monkey, Vero cells, 3 days culture, read-out: CC50 (concentration inhibiting 50% of cell growth). Format: cell-based. How it is done: Each test compound was dissolved in dimethyl sulfoxide, adjusted to each concentration using E'MEM, and then dispensed at 0.1 mL/well to 96-well microplates. The Vero cell suspension was prepared at 3×10^4 cells/mL using E'MEM supplemented with 20% FBS, inoculated thereto at 0.1 mL/well, and cultured at 37° C. for 3 days under 5% CO2. At the completion of the culture, PBS supplemented with 1 mg/mL 2,3-bis-(2-methoxy-4-nitro-5-sulfophenyl)-5-((phenylamino)carbonyl)-2H-tetrazolium inner salt monosodium salt (XTT) and 25 μM phenazine methosulfate (PMS) was prepared and added thereto at 50 μL/well. Approximately 2 hours later, the absorbance at 450 nm was measured using a microplate reader.
(In general: Tetrazolium assays rely on reduction of a dye to a coloured formazan, in cell work by metabolically active cells.)

In data set [6] the test system is multidrug-resistant Pseudomonas aeruginosa clinical isolate (S-2838 strain). The data set is described as follows: Defense against mouse systemic infection using multidrug-resistant Pseudomonas aeruginosa. It counts as in vivo. Particulars: male ICR mice, S-2838 strain i.p., single intravenous dose 50 mg/kg 1 hour after infection. How it is done:
The mice used were male ICR SPF mice (4 weeks old: 5 individuals per group). To prepare a bacterial inoculum solution, a multidrug-resistant Pseudomonas aeruginosa clinical isolate (S-2838 strain) cultured overnight at 37° C. on a Mueller-Hinton agar plate was cultured for 5 hours in a cation-adjusted Mueller-Hinton medium and then diluted 10-fold with a 10% mucin/phosphate buffer solution to prepare the inoculum solution. Infection was induced by the intraperitoneal inoculation of 0.5 mL of the inoculum solution (approximately 10^6 CFU/mouse) to each mouse. Each test compound was dissolved in a 10% hydroxypropylated β-cyclodextrin/2.5% mannitol aqueous solution and intravenously administered to the tail a single dose of 50 mg/kg at 1 hour after the infection. Three days after the infection, the number of survivors was recorded.

The source of these data is patent US9862676B2, “Hydroxamic acid derivative or salt thereof” (TOYAMA CHEMICAL CO., LTD., priority 2013, dated 2018).

One may read the IC50 as the midpoint of a concentration-inhibition curve. In general, MIC refers to the lowest concentration that inhibits growth of the organism. Read a high MIC as a need for much substance.

Converted amounts (≈) assume the structure as drawn. Where only a bound is given, the exact number is not on record here.

For the compound `CNC(=O)[C@@](C)(C(=O)NO)N(C)C(=O)c1ccc(C#Cc2ccc(COCCO)cc2)cc1` [Example 1, (2S)—N-hydroxy-2-((4-((4-((2-hydroxyethoxy)methyl)phenyl)ethynyl)benzoyl)(methyl)amino)-N′,2-dimethyl-malonamide], the IC50 in data set [1] was less than 50 nM. In addition, the MIC in data set [2] came out at 0.25 µg/mL (≈ 0.551 µM); in data set [3], 1 µg/mL (≈ 2.21 µM); in data set [4] it was 1 µg/mL (≈ 2.21 µM). In data set [5], the CC50 at 3 days is no less than 100 µg/mL.
Regarding `CNC(=O)[C@@](C)(C(=O)NO)N(C)C(=O)c1ccc(C#Cc2ccc(C(O)CO)cc2)cc1` (stereo partly drawn) [Example 3, (2S)-2-((4-((4-(1,2-dihydroxyethyl)phenyl)ethynyl)benzoyl)(methyl)amino)-N-hydroxy-N′,2-dimethyl-malonamide], in data set [1], the IC50 is less than 50 nM. In data set [4], this compound came in with an MIC of 1 µg/mL (≈ 2.28 µM). In addition, the CC50 at 3 days in data set [5] was no less than 100 µg/mL.
Consider `CNC(=O)[C@@](C)(C(=O)NO)N(C)C(=O)c1ccc(C#Cc2ccc(C(O)COC)cc2)cc1` (stereo partly drawn) [Example 13, (2S)—N-hydroxy-2-((4-((4-(1-hydroxy-2-methoxyethyl)phenyl)ethynyl)benzoyl)(methyl)amino)-N′,2-dimethyl-malonamide], for which the MIC in data set [2] amounted to 0.25 µg/mL (≈ 0.551 µM); in data set [3] it was 1 µg/mL (≈ 2.21 µM); in data set [4], 1 µg/mL (≈ 2.21 µM). In data set [5], the CC50 at 3 days was no less than 100 µg/mL.
For the compound `CNC(=O)[C@@](C)(C(=O)NO)N(C)C(=O)c1ccc(C#Cc2ccc(C(C)O)cc2)cc1` (stereo partly drawn) [Example 16, (2S)—N-hydroxy-2-((4-((4-(1-hydroxyethyl)phenyl)ethynyl)benzoyl)(methyl)amino)-N′,2-dimethyl-malonamide], the IC50 in data set [1] was less than 50 nM. Moreover, the MIC in data set [2] worked out at 0.25 µg/mL (≈ 0.59 µM); in data set [3], 1 µg/mL (≈ 2.36 µM); in data set [4] it was 1 µg/mL (≈ 2.36 µM).
`CNC(=O)[C@@](C)(C(=O)NO)N(C)C(=O)c1ccc(C#Cc2ccc(C(O)CCO)cc2)cc1` (stereo partly drawn) [Example 17, (2S)-2-((4-((4-(1,3-dihydroxypropyl)phenyl)ethynyl)benzoyl)(methyl)amino)-N-hydroxy-N′,2-dimethylmalonamide] displayed a half-maximal inhibitory concentration (IC50) in data set [1] of less than 50 nM. The MIC in data set [4] amounted to 1 µg/mL (≈ 2.21 µM). For the same compound, the CC50 at 3 days in data set [5] was no less than 100 µg/mL.
For the compound `CNC(=O)[C@@](C)(C(=O)NO)N(C)C(=O)c1ccc(C#Cc2ccc([C@@H](O)CO)cc2)cc1` [Example 19, (2S)-2-((4-((4-((1R)-1,2-dihydroxyethyl)phenyl)ethynyl)benzoyl)(methyl)amino)-N-hydroxy-N′,2-dimethyl-malonamide], in data set [1], the IC50 is less than 50 nM. The same compound yielded an MIC in data set [4] of 1 µg/mL (≈ 2.28 µM). Besides, the “mice surviving 3 days after the bacterial inoculation” value in data set [6] came out at 100%. Further, the CC50 at 3 days in data set [5] was no less than 100 µg/mL.
`CNC(=O)[C@@](C)(C(=O)NO)N(C)C(=O)c1ccc(C#Cc2ccc([C@H](O)COCCO)cc2)cc1` [Example 24, (2S)—N-hydroxy-2-((4-((4-((1S)-1-hydroxy-2-(2-hydroxyethoxy)ethyl)phenyl)ethynyl)benzoyl)(methyl)amino)-N′,2-dimethyl-malonamide] registered an IC50 in data set [1] of less than 50 nM. The figures for the MIC in data set [2] and in data set [4] were 0.5 µg/mL (≈ 1.03 µM) and 1 µg/mL (≈ 2.07 µM), respectively. Also, the CC50 at 3 days in data set [5] was no less than 100 µg/mL.
The like results for `CNC(=O)[C@@](C)(C(=O)NO)N(C)C(=O)c1ccc(C#Cc2ccc([C@H](O)CCO)cc2)cc1` [Example 25, (2S)-2-((4-((4-((1R)-1,3-dihydroxypropyl)phenyl)ethynyl)benzoyl)(methyl)amino)-N-hydroxy-N′,2-dimethyl-malonamide] were, in that order, less than 50 nM, 0.5 µg/mL (≈ 1.1 µM), 0.5 µg/mL (≈ 1.1 µM) and no less than 100 µg/mL.
The like results for `CNC(=O)[C@@](C)(C(=O)NO)N(C)C(=O)c1ccc(C#Cc2ccc([C@H](O)[C@H](C)O)cc2)cc1` [Example 33, (2S)-2-((4-((4-((1S,2S)-1,2-dihydroxypropyl)phenyl)ethynyl)benzoyl)(methyl)amino)-N-hydroxy-N′,2-dimethylmalonamide] were, in that order, less than 50 nM, 0.5 µg/mL (≈ 1.1 µM), 1 µg/mL (≈ 2.21 µM) and no less than 100 µg/mL.
`CNC(=O)[C@@](C)(C(=O)NO)N(C)C(=O)c1ccc(C#Cc2ccc(C(O)CCCO)cc2)cc1` (stereo partly drawn) [Example 35, (2S)-2-((4-((4-(1,4-dihydroxybutyl)phenyl)ethynyl)benzoyl)(methyl)amino)-N-hydroxy-N′,2-dimethyl-malonamide]: the 50% inhibitory concentration (IC50) in data set [1] was less than 50 nM. Further, the MIC in data set [3] and in data set [4] was 1 µg/mL (≈ 2.14 µM) each time. In addition, the CC50 at 3 days in data set [5] is no less than 100 µg/mL.
In data set [1], `CNC(=O)[C@@](C)(C(=O)NO)N(C)C(=O)c1ccc(C#Cc2ccc([C@H](O)CCOC)cc2)cc1` [Example 36, (2S)—N-hydroxy-2-((4-((4-((1R)-1-hydroxy-3-methoxypropyl)phenyl)ethynyl)benzoyl)(methyl)amino)-N′,2-dimethylmalonamide] returned an IC50 of less than 50 nM. Further, the results for the MIC in data set [2], in data set [3] and in data set [4] were 0.25 µg/mL (≈ 0.535 µM), 1 µg/mL (≈ 2.14 µM) and 0.5 µg/mL (≈ 1.07 µM), respectively. Besides, in data set [5], the CC50 at 3 days is no less than 100 µg/mL.
With `CNC(=O)[C@@](C)(C(=O)NO)N(C)C(=O)c1ccc(C#Cc2ccc([C@H](O)CCCO)cc2)cc1` [Example 39, (2S)-2-((4-((4-((1R)-1,4-dihydroxybutyl)phenyl)ethynyl)benzoyl)(methyl)amino)-N-hydroxy-N′,2-dimethyl-malonamide], in data set [1], the IC50 is less than 50 nM. Besides, the values for the MIC in data set [2], in data set [3] and in data set [4] were 0.5 µg/mL (≈ 1.07 µM), 1 µg/mL (≈ 2.14 µM) and 1 µg/mL (≈ 2.14 µM), respectively. In data set [6], the “mice surviving 3 days after the bacterial inoculation” value stood at 100%.
Compound `CNC(=O)[C@@](C)(C(=O)NO)N(C)C(=O)c1ccc(C#Cc2ccc([C@H](O)/C=C/CO)cc2)cc1` [Example 40, (2S)-2-((4-((4-((1R,2E)-1,4-dihydroxybut-2-ene-1-yl)phenyl)ethynyl)benzoyl)(methyl)amino)-N-hydroxy-N′,2-dimethyl-malonamide] had an IC50 in data set [1] of less than 50 nM. Also, the minimal inhibitory concentration (MIC) came out at 0.5 µg/mL (≈ 1.07 µM) in data set [2], 1 µg/mL (≈ 2.15 µM) in data set [3] and 1 µg/mL (≈ 2.15 µM) in data set [4].
